Experimental data: EPA's ToxValDB 9.5 (doi:10.2903/j.efsa.2010.1718)
Converted amounts (≈) assume the structure as drawn.

Key:
Bibionidae = conditions: chronic/long-term; duration: 28 days
Aphidius rhopalosiphi = test: LR50; higher = less toxic; conditions: not reported; mortality
Daphnia magna = conditions: chronic/long-term; duration: 21 days; reproduction
Pimephales promelas = conditions: chronic/long-term; duration: 265 days; growth
Lepomis macrochirus = conditions: acute; duration: 96 hours; mortality
Apis mellifera = conditions: acute; duration: 48 hours; dermal; mortality
Oryctolagus sp. = conditions: reproduction developmental; body weight

Structure (SMILES)	NOEC (Tagia sp.; chronic/long-term, duration: 56 days) [mg/kg]	NOEC (Bibionidae) [mg/L]	LR50 (Aphidius rhopalosiphi) [g/ha]	NOEC (Daphnia magna) [mg/L]	LC50 (Colinus virginianus; acute, oral, diet, mortality) [mg/kg-day]	LD50 (Colinus virginianus; acute, oral, mortality) [mg/kg-day]	NOEC (Colinus virginianus; reproduction developmental) [mg/kg-day]	LC50 (Tagia sp.; acute, duration: 14 days, mortality) [mg/kg]	NOEC (Pimephales promelas) [mg/L]	LD50 (Rattus norvegicus; acute, oral, mortality) [mg/kg-day]	NOEL (Rattus norvegicus; chronic) [mg/kg-day]	LOAEL (Rattus norvegicus; chronic, duration: 2 years, histopathology: nonneoplastic) [mg/kg-day]	NOAEL (Rattus norvegicus; reproduction developmental, no effects) [mg/kg-day]	LC50 (Lepomis macrochirus) [µg/mL]	NOEC (Anas platyrhynchos; reproductive) [mg/kg-day]	LC50 (Anas platyrhynchos; short-term, oral, feed, mortality) [mg/kg-day]	LD50 (Apis mellifera) [µg/piece]	NOAEL (Oryctolagus sp.) [mg/kg-day]
CC(Oc1ccc(Oc2ccc(Cl)cc2Cl)cc1)C(=O)O (stereo not drawn) [Diclofop]	100	10	–	–	–	–	–	–	–	–	–	–	–	–	–	–	–	–
COC(=O)C(C)Oc1ccc(Oc2ccc(Cl)cc2Cl)cc1 (racemic) [(+-)-Diclofop-methyl]	–	–	30.1	0.081	> 2880	> 2250	20	> 1000	0.015	512	7.8	0.2	3	0.15 (≈ 0.44 µM)	25	> 1100	> 100	0.3
